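Following 48 hours of exposure in 96-well plates, responses at five concentrations were used to interpolate endpoints linearly. GI50: concentration for 50% inhibition of growth.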 The source made the active and inactive calls. Cut-off read from the data, not from the text of the source: active = GI50 up to about 1.1 µM and inactive = higher.
Assays:
Test in all cases: inhibition of tumour cell growth, NCI panel, 48 h
[1] = test system: HCT-116
[2] = test system: TK-10
[3] = test system: M14
[4] = test system: OVCAR-5
[5] = test system: Malme-3M
[6] = test system: ACHN
[7] = test system: NCI-H226
[8] = test system: SF-539
[9] = test system: IGROV-1
[10] = test system: OVCAR-4
[11] = test system: K562
[12] = test system: SF-295
[13] = test system: CCRF-CEM
[14] = test system: EKVX
[15] = test system: A498

SMILES	GI50 [1]	GI50 [2]	GI50 [3]	GI50 [4]	GI50 [5]	GI50 [6]	GI50 [7]	GI50 [8]	GI50 [9]	GI50 [10]	GI50 [11]	GI50 [12]	GI50 [13]	GI50 [14]	GI50 [15]
O=C(O)CCCc1cc2c(s1)-c1cccc3cccc-2c13	34.8 µM (inactive)	49 µM (inactive)	50.1 µM (inactive)	> 100 µM (inactive)	28.9 µM (inactive)	22.4 µM (inactive)	84.9 µM (inactive)	45.3 µM (inactive)	47.3 µM (inactive)	76.9 µM (inactive)	31.9 µM (inactive)	50.1 µM (inactive)	–	–	–
COc1ccccc1-n1c(C)nc2ccccc2c1=O	> 100 µM (inactive)	> 100 µM (inactive)	> 100 µM (inactive)	> 100 µM (inactive)	> 100 µM (inactive)	> 100 µM (inactive)	> 100 µM (inactive)	> 100 µM (inactive)	> 100 µM (inactive)	> 100 µM (inactive)	> 100 µM (inactive)	> 100 µM (inactive)	> 100 µM (inactive)	> 100 µM (inactive)	> 100 µM (inactive)
N#CCCN(CCC#N)c1ccc(/C=C2\N=C(c3cc([N+](=O)[O-])ccc3Cl)OC2=O)cc1	> 100 µM (inactive)	–	35.6 µM (inactive)	> 100 µM (inactive)	> 100 µM (inactive)	> 100 µM (inactive)	22.4 µM (inactive)	40.3 µM (inactive)	> 100 µM (inactive)	30 µM (inactive)	18.2 µM (inactive)	44.5 µM (inactive)	–	> 100 µM (inactive)	> 100 µM (inactive)
CC(=O)Oc1cc(OC(C)=O)c(OC(C)=O)c2c1CC1C(=O)C3(CCc4ccccc43)C(=O)C1C2 (centres undefined)	–	17.4 µM (inactive)	> 100 µM (inactive)	–	7.57 µM (inactive)	13.4 µM (inactive)	–	–	19.8 µM (inactive)	11.7 µM (inactive)	9.2 µM (inactive)	4.61 µM (inactive)	10.7 µM (inactive)	20 µM (inactive)	–
C[Si]1(C)C(c2ccccc2)=CC2C(c3ccccc3)(c3ccccc3)OC21c1ccccc1 (centres undefined)	28.2 µM (inactive)	> 100 µM (inactive)	43.8 µM (inactive)	> 100 µM (inactive)	33.6 µM (inactive)	> 100 µM (inactive)	> 100 µM (inactive)	> 100 µM (inactive)	> 100 µM (inactive)	> 100 µM (inactive)	87.7 µM (inactive)	66.8 µM (inactive)	> 100 µM (inactive)	> 100 µM (inactive)	> 100 µM (inactive)
COc1cc(/C=C2\C(=O)N(C(=O)Cc3ccccc3)N=C2C)ccc1O	> 100 µM (inactive)	> 100 µM (inactive)	> 100 µM (inactive)	> 100 µM (inactive)	> 100 µM (inactive)	> 100 µM (inactive)	> 100 µM (inactive)	> 100 µM (inactive)	–	> 100 µM (inactive)	> 100 µM (inactive)	> 100 µM (inactive)	> 100 µM (inactive)	> 100 µM (inactive)	–
[O-][Cl+3]([O-])([O-])[O-].c1ccc(-c2[o+]c(-c3ccccc3)c(-c3ccccc3)c(-c3ccccc3)c2-c2ccccc2)cc1	> 100 µM (inactive)	> 100 µM (inactive)	> 100 µM (inactive)	> 100 µM (inactive)	> 100 µM (inactive)	> 100 µM (inactive)	> 100 µM (inactive)	> 100 µM (inactive)	> 100 µM (inactive)	> 100 µM (inactive)	–	> 100 µM (inactive)	–	> 100 µM (inactive)	> 100 µM (inactive)
CC/C(CC(=O)CCC(=O)Nc1ccccc1[N+](=O)[O-])=N/NC(=O)C[n+]1ccccc1	> 100 µM (inactive)	> 100 µM (inactive)	> 100 µM (inactive)	> 100 µM (inactive)	> 100 µM (inactive)	> 100 µM (inactive)	> 100 µM (inactive)	> 100 µM (inactive)	> 100 µM (inactive)	> 100 µM (inactive)	> 100 µM (inactive)	> 100 µM (inactive)	> 100 µM (inactive)	> 100 µM (inactive)	> 100 µM (inactive)
COc1ccc(/C(=N\NC(=O)C(N)=O)C(c2ccc(OC)cc2)C2(O)C(=O)Nc3c(Cl)cccc32)cc1 (centres undefined)	> 100 µM (inactive)	> 100 µM (inactive)	> 100 µM (inactive)	> 100 µM (inactive)	> 100 µM (inactive)	> 100 µM (inactive)	> 100 µM (inactive)	–	> 100 µM (inactive)	> 100 µM (inactive)	–	> 100 µM (inactive)	50.1 µM (inactive)	> 100 µM (inactive)	–
Cc1cc(O)nc(NNC(C#N)c2cccc([N+](=O)[O-])c2)n1 (centres undefined)	> 100 µM (inactive)	> 100 µM (inactive)	> 100 µM (inactive)	> 100 µM (inactive)	> 100 µM (inactive)	> 100 µM (inactive)	> 100 µM (inactive)	> 100 µM (inactive)	> 100 µM (inactive)	> 100 µM (inactive)	> 100 µM (inactive)	> 100 µM (inactive)	> 100 µM (inactive)	–	–
CC1=CP(=O)(OC(C)C)C=C(C)C1=C(Cl)Cl (centres undefined)	24.9 µM (inactive)	> 100 µM (inactive)	59.6 µM (inactive)	> 100 µM (inactive)	> 100 µM (inactive)	47.1 µM (inactive)	26.2 µM (inactive)	84.1 µM (inactive)	> 100 µM (inactive)	> 100 µM (inactive)	42 µM (inactive)	45.2 µM (inactive)	54 µM (inactive)	> 100 µM (inactive)	–
COc1cc(C(C#N)NNC(=O)Cc2ccccc2)cc(OC)c1OC (centres undefined)	> 100 µM (inactive)	> 100 µM (inactive)	> 100 µM (inactive)	> 100 µM (inactive)	> 100 µM (inactive)	> 100 µM (inactive)	> 100 µM (inactive)	> 100 µM (inactive)	> 100 µM (inactive)	> 100 µM (inactive)	> 100 µM (inactive)	> 100 µM (inactive)	> 10 µM (inactive)	–	–
O=C(O)C1=C(Cl)c2ccccc2S1(=O)=O	–	> 100 µM (inactive)	> 100 µM (inactive)	> 100 µM (inactive)	> 100 µM (inactive)	–	–	–	> 100 µM (inactive)	> 100 µM (inactive)	> 100 µM (inactive)	> 100 µM (inactive)	> 100 µM (inactive)	> 100 µM (inactive)	–
Cc1ccc(CC(C)N)cc1 (centres undefined)	> 100 µM (inactive)	> 100 µM (inactive)	> 100 µM (inactive)	> 100 µM (inactive)	> 100 µM (inactive)	> 100 µM (inactive)	> 100 µM (inactive)	> 100 µM (inactive)	> 100 µM (inactive)	> 100 µM (inactive)	> 100 µM (inactive)	> 100 µM (inactive)	> 100 µM (inactive)	> 100 µM (inactive)	> 100 µM (inactive)
NC(=S)N/N=C/c1nccc2ccccc12	0.914 µM (active)	4.93 µM (inactive)	0.482 µM (active)	0.685 µM (active)	0.0337 µM (active)	0.0254 µM (active)	–	0.223 µM (active)	0.762 µM (active)	0.54 µM (active)	2.73 µM (inactive)	0.168 µM (active)	0.453 µM (active)	–	0.515 µM (active)
Cc1cc(O)nc(NNC(C#N)c2ccco2)n1 (centres undefined)	> 100 µM (inactive)	> 100 µM (inactive)	> 100 µM (inactive)	> 100 µM (inactive)	> 100 µM (inactive)	> 100 µM (inactive)	> 100 µM (inactive)	> 100 µM (inactive)	> 100 µM (inactive)	> 100 µM (inactive)	> 100 µM (inactive)	> 100 µM (inactive)	> 100 µM (inactive)	–	–
Cc1ccc(Cn2c(C)nc3c2C(=O)c2ccccc2C3=O)cc1	0.755 µM (active)	13 µM (inactive)	27.7 µM (inactive)	–	10.9 µM (inactive)	6.22 µM (inactive)	6.9 µM (inactive)	1.32 µM (inactive)	5.45 µM (inactive)	13.3 µM (inactive)	0.834 µM (active)	7.66 µM (inactive)	1.98 µM (inactive)	18.2 µM (inactive)	–
COc1cc(Nc2nc3ccccc3nc2-c2cccs2)cc(OC)c1OC	28.1 µM (inactive)	35.8 µM (inactive)	–	> 100 µM (inactive)	67.9 µM (inactive)	16.4 µM (inactive)	66.7 µM (inactive)	40.6 µM (inactive)	–	–	–	22.8 µM (inactive)	47.1 µM (inactive)	89.5 µM (inactive)	–
CC1(C)CC(/C=C2/OC(=O)c3ccccc32)=C(C#N)C(=O)O1	> 100 µM (inactive)	–	> 100 µM (inactive)	> 100 µM (inactive)	> 100 µM (inactive)	> 100 µM (inactive)	> 100 µM (inactive)	> 100 µM (inactive)	> 100 µM (inactive)	18.6 µM (inactive)	> 100 µM (inactive)	> 100 µM (inactive)	> 100 µM (inactive)	> 100 µM (inactive)	–
CN(C(=O)c1ccc([N+](=O)[O-])cc1)c1ccccc1	> 100 µM (inactive)	–	> 100 µM (inactive)	> 100 µM (inactive)	> 100 µM (inactive)	> 100 µM (inactive)	> 100 µM (inactive)	> 100 µM (inactive)	> 100 µM (inactive)	> 100 µM (inactive)	> 10 µM (inactive)	> 100 µM (inactive)	> 100 µM (inactive)	> 100 µM (inactive)	> 100 µM (inactive)

Source: ChEMBL document CHEMBL1201862, “PubChem BioAssay data set” (2004)
